In series [1] the test system is Leishmania infantum. As to the kind of experiment: Anti-leishmanial activity against promastigote stage of Leishmania infantum MHOM/MA/67/ITMAP-263 assessed as inhibition of parasite growth incubated for 72 hrs by resazurin-dye based assay. It is filed as functional, organism-based. The note with it: MHOM/MA/67/ITMAP-263, 72 h.
Series [2] relates to Leishmania infantum. The series can be described thus: Anti-leishmanial activity against luciferase expressing intracellular amastigote stage of Leishmania infantum MHOM/MA/67/ITMAP-263 infected in human THP-1 cells assessed as inhibition of parasite growth at 10 uM incubated for 72 hrs by Steady-Glo luciferase assay. It is filed as functional. The note with it: MHOM/MA/67/ITMAP-263, THP-1.

Series [3] in a line: Selectivity index, ratio of CC50 for cytotoxicity against human THP-1 cells to IC50 for anti-leishmanial activity against promastigote stage of Leishmania infantum MHOM/MA/67/ITMAP-263. In kind it is toxicity, cell-based. The following applies: read-out: Ratio CC50/IC50.
Series [4] relates to Leishmania infantum. As to the kind of experiment: Anti-leishmanial activity against promastigote stage of Leishmania infantum MHOM/MA/67/ITMAP-263 assessed as inhibition of parasite growth at 10 uM incubated for 72 hrs by resazurin-dye based assay. In kind it is functional. For orientation: Resazurin is reduced to fluorescent resorufin, in cell work by metabolically active cells.

Series [5] relates to Leishmania infantum. The series can be described thus: Anti-leishmanial activity against luciferase expressing intracellular amastigote stage of Leishmania infantum MHOM/MA/67/ITMAP-263 infected in human THP-1 cells assessed as inhibition of parasite growth incubated for 72 hrs by Steady-Glo luciferase assay. In kind it is functional, organism-based. The following applies: MHOM/MA/67/ITMAP-263, THP-1, 72 h.

Series [6] is described as follows: Selectivity index, ratio of CC50 for cytotoxicity against human THP-1 cells to IC50 for anti-leishmanial activity against luciferase expressing intracellular amastigote stage of Leishmania infantum MHOM/MA/67/ITMAP-263 infected in human THP-1 cells. In kind it is toxicity, cell-based. The note with it: read-out: Ratio CC50/IC50.
A short description of series [7]: Cytotoxicity against human HEK293 cells assessed as reduction in cell viability at 10 uM incubated for 24 hrs by Cell-Titer Glo luminescence assay. In kind it is toxicity, cell-based. The note with it: read-out: INH.
The nature of series [8]: Selectivity index, ratio of CC50 for cytotoxicity against human THP-1 cells to IC50 for anti-trypanosomal activity against trypomastigote blood stage of Trypanosoma brucei Lister 427. In kind it is toxicity, cell-based. The note with it: read-out: Ratio CC50/IC50.
A short description of series [9]: Cytotoxicity against human A549 cells assessed as reduction in cell viability at 10 uM incubated for 24 hrs by Cell-Titer Glo luminescence assay. The following applies: read-out: INH. In kind it is toxicity, cell-based.
Series [10] has as its target hERG (KCNH2) (Homo sapiens, UniProt Q12809). As to the kind of experiment: Displacement of tracer from hERG extracted from membrane at 10 uM incubated for 2 hrs by fluorescence polarization assay. It is filed as toxicity, cell membranes. The note with it: hERG membrane preparation, probe tracer (not named).
Series [11] concerns Trypanosoma brucei. As to the kind of experiment: Anti-trypanosomal activity against trypomastigote blood stage of Trypanosoma brucei Lister 427 assessed as inhibition of parasite growth incubated for 72 hrs by resazurin-dye based assay. It is filed as functional, organism-based. The following applies: Lister 427, 72 h.
For series [12], the target named is CYP3A4 (Homo sapiens, UniProt P08684). The series can be described thus: Inhibition of human CYP3A4 expressed in insect cell microsomes at 10 uM preincubated for 20 mins followed by NADP+ and substrate addition and measured after 10 mins by fluorescence based analysis. The note with it: recombinant human CYP3A4 expressed in insect cell microsomes, time 30 min. In kind it is ADME, Microsome.

Series [13] can be described thus: Cytotoxicity against human THP-1 cells assessed as reduction in cell viability incubated for 72 hrs by MTT assay. It is filed as toxicity, cell-based.

We go through ten compounds from ChEMBL document CHEMBL5614450, “SAR Study of 4,8-Disubstituted Pyrimido[5,4-d]pyrimidines Exhibiting Antitrypanosomal and Antileishmanial Activity” (ACS Med Chem Lett, 2024).

Chain of CYP3A4 (P08684 whole entry): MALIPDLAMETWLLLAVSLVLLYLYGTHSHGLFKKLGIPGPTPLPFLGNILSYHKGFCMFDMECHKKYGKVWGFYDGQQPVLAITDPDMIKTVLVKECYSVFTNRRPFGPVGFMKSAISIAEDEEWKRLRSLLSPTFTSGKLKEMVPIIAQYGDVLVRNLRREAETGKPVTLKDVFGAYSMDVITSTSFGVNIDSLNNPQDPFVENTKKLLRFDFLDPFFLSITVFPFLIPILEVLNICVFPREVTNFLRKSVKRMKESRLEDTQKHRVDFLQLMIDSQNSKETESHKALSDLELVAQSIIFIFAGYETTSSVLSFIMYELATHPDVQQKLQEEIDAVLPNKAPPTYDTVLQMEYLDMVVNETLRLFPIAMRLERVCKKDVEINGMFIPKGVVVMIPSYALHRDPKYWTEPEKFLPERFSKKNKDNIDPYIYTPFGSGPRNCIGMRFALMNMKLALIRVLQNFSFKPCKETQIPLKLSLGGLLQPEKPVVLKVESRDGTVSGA
Chain of hERG (KCNH2) (Q12809 whole entry): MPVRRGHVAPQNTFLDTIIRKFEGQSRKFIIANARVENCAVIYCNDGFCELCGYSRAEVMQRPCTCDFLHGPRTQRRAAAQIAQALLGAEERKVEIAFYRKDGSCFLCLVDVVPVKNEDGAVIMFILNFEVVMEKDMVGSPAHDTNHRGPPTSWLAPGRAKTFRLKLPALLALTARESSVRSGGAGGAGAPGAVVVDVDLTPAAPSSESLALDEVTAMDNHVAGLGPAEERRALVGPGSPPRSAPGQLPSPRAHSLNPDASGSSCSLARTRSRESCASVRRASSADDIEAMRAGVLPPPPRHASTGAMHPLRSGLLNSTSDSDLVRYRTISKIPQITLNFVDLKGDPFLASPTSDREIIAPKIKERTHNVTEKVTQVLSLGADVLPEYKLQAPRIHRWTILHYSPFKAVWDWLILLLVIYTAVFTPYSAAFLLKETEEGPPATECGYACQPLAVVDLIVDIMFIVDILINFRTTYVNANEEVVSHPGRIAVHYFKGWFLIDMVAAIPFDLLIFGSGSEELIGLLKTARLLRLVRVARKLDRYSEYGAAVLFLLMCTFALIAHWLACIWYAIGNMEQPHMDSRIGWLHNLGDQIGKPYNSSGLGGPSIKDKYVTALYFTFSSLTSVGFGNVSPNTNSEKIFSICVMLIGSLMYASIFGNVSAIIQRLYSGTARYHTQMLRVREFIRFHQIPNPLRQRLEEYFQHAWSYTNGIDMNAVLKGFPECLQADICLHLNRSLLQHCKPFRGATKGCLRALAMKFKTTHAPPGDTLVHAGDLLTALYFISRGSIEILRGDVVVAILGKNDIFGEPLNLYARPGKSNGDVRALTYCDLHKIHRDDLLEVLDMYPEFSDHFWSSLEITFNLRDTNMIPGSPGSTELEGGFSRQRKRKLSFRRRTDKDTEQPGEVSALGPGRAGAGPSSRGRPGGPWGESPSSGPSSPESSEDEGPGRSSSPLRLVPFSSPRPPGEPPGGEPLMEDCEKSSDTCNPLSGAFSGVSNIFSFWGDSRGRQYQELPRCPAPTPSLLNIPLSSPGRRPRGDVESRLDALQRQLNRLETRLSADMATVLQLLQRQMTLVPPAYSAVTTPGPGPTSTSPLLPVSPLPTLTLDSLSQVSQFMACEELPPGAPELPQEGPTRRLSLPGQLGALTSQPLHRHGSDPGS

The term IC50 denotes the concentration needed to halve the response being measured. As usually defined, the inhibition is the relative decrease from the control value, in per cent. For `CCCCCCCCCCCCCCCCOP(=O)([O-])OCC[N+](C)(C)C` [MILTEFOSINE], the values for the IC50 in series [1] and in [5] were 11900 nM and 710 nM, respectively. Also, the inhibition at 10 µM came out at 99% in series [2] and 97% in series [4]. In addition, the selectivity ratio in series [3] was 2.5; in [6], 42.
Broadly, the CC50 is the concentration at which the toxic effect on the cells reaches its halfway point. As for `COc1ccc(Nc2ncnc3c(N/N=C/c4ccc(O)c(O)c4)ncnc23)cc1`, the cytotoxicity at 24 h, 10 µM in series [7] amounted to 18%; in series [9], 39%. Moreover, the figures for the IC50 in [1], in series [11] and in [5] were 990 nM, 550 nM and 3130 nM, respectively. Also, the inhibition at 10 µM in series [2] was 87%; in series [4], 98%. For the same compound, the selectivity ratio in series [8] is over 182; in [3] it was over 101; in [6], over 32. This compound registered an inhibition at 2 h, 10 µM in series [10] of 36%. The inhibition at 10 min, 10 µM in [12] came to 2%. Further, the CC50 at 72 h in series [13] is over 100000 nM.
With `COc1ccc(Nc2ncnc3c(N/N=C/c4cc(O)c(O)c(O)c4)ncnc23)cc1`, the cytotoxicity at 24 h, 10 µM in series [7] was determined as 3%; in series [9] it was 12%. In addition, the IC50 in series [1] is 200 nM; in series [11] it was 540 nM; in [5], over 20000 nM. Also, the inhibition at 10 µM in [2] amounted to 41%; in [4], 94%. For the same compound, the selectivity ratio in [8] was over 185; in series [3] it was over 502. Further, the inhibition at 2 h, 10 µM in [10] amounted to 48%. Further, the inhibition at 10 min, 10 µM in [12] came out at 0%. Moreover, the CC50 at 72 h in series [13] was over 100000 nM.
For the compound `COc1cccc(Nc2ncnc3c(N/N=C/c4ccc(O)c(O)c4)ncnc23)c1`, the cytotoxicity at 24 h, 10 µM in series [7] came out at 7%; in series [9], 22%. The half-maximal inhibitory concentration (IC50) in series [1] is 1670 nM; in series [11] it was 1280 nM; in [5], 8510 nM. Besides, the figures for the inhibition at 10 µM in series [2] and in series [4] were 62% and 94%, respectively. Moreover, the figures for the selectivity ratio in [8], in series [3] and in [6] were over 39, 30 and 6, respectively. The inhibition at 2 h, 10 µM in series [10] was found to be 18%. For the same compound, in series [12], the inhibition at 10 min, 10 µM is 2%. Also, the cytotoxic concentration (CC50) at 72 h in series [13] was over 50000 nM.
For the compound `COc1cccc(Nc2ncnc3c(NN)ncnc23)c1`, the cytotoxicity at 24 h, 10 µM in series [7] was 12%; in [9], 16%. The IC50 was found to be 280 nM in series [1] and 110 nM in series [11]. The values for the inhibition at 10 µM in [2] and in [4] were under 0% and 99%, respectively. The selectivity ratio is over 438 in series [8] and 178 in series [3]. In addition, the inhibition at 2 h, 10 µM in series [10] worked out at 14%. In addition, the inhibition at 10 min, 10 µM in series [12] was 65%. Moreover, the CC50 at 72 h in series [13] is over 50000 nM.
`COc1ccc(/C=N/Nc2ncnc3c(Nc4ccc(OC(F)(F)F)cc4)ncnc23)cc1O`: the cytotoxicity at 24 h, 10 µM in series [7] was 10%; in series [9], 38%. For the same compound, the figures for the IC50 in [1] and in series [11] were 2540 nM and 260 nM, respectively. The inhibition at 10 µM in series [2] was under 0%; in series [4], 60%. Besides, the selectivity ratio in series [8] is over 39; in [3], 4. In [10], this compound returned an inhibition at 2 h, 10 µM of 61%. The inhibition at 10 min, 10 µM in series [12] stood at 0%. Also, the CC50 at 72 h in series [13] is over 10000 nM.
With `COc1ccc(Nc2ncnc3c(NN)ncnc23)cc1`, the cytotoxicity at 24 h, 10 µM is -7% in [7] and -14% in series [9]. Also, the IC50 in series [1] amounted to 720 nM; in [11] it was 710 nM. Besides, the inhibition at 10 µM was under 0% in series [2] and 99% in [4]. Besides, the selectivity ratio in series [8] is over 71; in series [3] it was 69. The compound also displayed an inhibition at 2 h, 10 µM in series [10] of 7%. The inhibition at 10 min, 10 µM in series [12] amounted to 12%. In [13], the CC50 at 72 h is over 50000 nM.
On to `COc1ccc(Nc2ncnc3c(N/N=C/c4ccc(OC)c(OC)c4)ncnc23)cc1`, for which the results for the cytotoxicity at 24 h, 10 µM in series [7] and in [9] were 12% and 23%, respectively. Further, the IC50 stood at 1930 nM in series [1], 2440 nM in [11] and 3000 nM in series [5]. The inhibition at 10 µM was 85% in [2] and 98% in series [4]. Further, the selectivity ratio in series [8] was over 41; in series [3], over 52; in [6], over 33. In [10], this compound had an inhibition at 2 h, 10 µM of 0%. The inhibition at 10 min, 10 µM in [12] came to 0%. The cytotoxic concentration (CC50) at 72 h in series [13] was over 100000 nM.
`COc1cccc(Nc2ncnc3c(N/N=C/c4cc(O)c(O)c(O)c4)ncnc23)c1`: the values for the cytotoxicity at 24 h, 10 µM in series [7] and in series [9] were 8% and -6%, respectively. Also, the IC50 in series [1] came out at 450 nM; in series [11], 2710 nM. Besides, the values for the inhibition at 10 µM in series [2] and in series [4] were 4% and 95%, respectively. The selectivity ratio in [8] was over 37; in series [3], over 221. Also, the inhibition at 2 h, 10 µM in series [10] amounted to 34%. Further, in series [12], the inhibition at 10 min, 10 µM came out at 0%. In addition, in series [13], the CC50 at 72 h was over 100000 nM.
Turning to `COc1cccc(Nc2ncnc3c(N/N=C/c4ccc(OC)c(OC)c4)ncnc23)c1`, the cytotoxicity at 24 h, 10 µM in series [7] is 18%; in series [9], 40%. Also, the results for the IC50 in [1], in series [11] and in series [5] were 1440 nM, 1320 nM and over 20000 nM, respectively. For the same compound, the results for the inhibition at 10 µM in series [2] and in [4] were 34% and 98%, respectively. In addition, the selectivity ratio was over 38 in series [8] and over 35 in [3]. The compound also registered an inhibition at 2 h, 10 µM in [10] of 35%. The inhibition at 10 min, 10 µM in series [12] turned out to be 0%. Moreover, the CC50 at 72 h in series [13] is over 50000 nM.
